Assay results as given in PubChem BioAssay (NCI).
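Growth conditions: 96-well plates. Treatment: test compound, 48 hours, 5 concentrations. Analysis: linear interpolation between bracketing concentrations; unreached endpoints set to highest concentration. The concentration for full growth arrest is given as TGI.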

Experiments:
Assay in all cases: inhibition of tumour cell growth, NCI panel, 48 h
HOP-62 NSCLC = test system: HOP-62 NSCLC
786-0 renal = test system: 786-0 renal
KM20L2 colon = test system: KM20L2 colon
HT29 colon = test system: HT29 colon
OVCAR-8 ovarian = test system: OVCAR-8 ovarian
SK-MEL-5 melanoma = test system: SK-MEL-5 melanoma
ACHN renal = test system: ACHN renal
SF-295 CNS = test system: SF-295 CNS
HCT-15 colon = test system: HCT-15 colon
RPMI-8226 leukemia = test system: RPMI-8226 leukemia
NCI-H522 lung = test system: NCI-H522 lung
RXF-631 renal = test system: RXF-631 renal
IGROV1 ovarian = test system: IGROV1 ovarian
SK-MEL-28 melanoma = test system: SK-MEL-28 melanoma
A549 NSCLC = test system: A549 NSCLC
OVCAR-5 ovarian = test system: OVCAR-5 ovarian
HS 578T breast = test system: HS 578T breast
SW-620 colon = test system: SW-620 colon
NCI-H226 lung = test system: NCI-H226 lung
CCRF-CEM leukemia = test system: CCRF-CEM leukemia
MDA-MB-435 = test system: MDA-MB-435
OVCAR-3 ovarian = test system: OVCAR-3 ovarian
A498 renal = test system: A498 renal
MCF7 breast = test system: MCF7 breast
OVCAR-4 ovarian = test system: OVCAR-4 ovarian
SNB-78 CNS = test system: SNB-78 CNS
U251 CNS = test system: U251 CNS
PC-3 prostate = test system: PC-3 prostate
EKVX NSCLC = test system: EKVX NSCLC
KM12 colon = test system: KM12 colon
DMS 273 small cell lung = test system: DMS 273 small cell lung
UO-31 renal = test system: UO-31 renal
DMS 114 small cell lung = test system: DMS 114 small cell lung
HL-60(TB) leukemia = test system: HL-60(TB) leukemia
LXFL 529 NSCLC = test system: LXFL 529 NSCLC
UACC-62 melanoma = test system: UACC-62 melanoma
DLD-1 colon = test system: DLD-1 colon
K-562 leukemia = test system: K-562 leukemia
SR leukemia = test system: SR leukemia
RXF 393 renal = test system: RXF 393 renal
BT-549 breast = test system: BT-549 breast
SNB-19 CNS = test system: SNB-19 CNS
COLO 205 colon = test system: COLO 205 colon
NCI-H23 lung = test system: NCI-H23 lung
UACC-257 melanoma = test system: UACC-257 melanoma
MALME-3M melanoma = test system: MALME-3M melanoma
HOP-18 NSCLC = test system: HOP-18 NSCLC
SK-OV-3 ovarian = test system: SK-OV-3 ovarian
DU-145 prostate = test system: DU-145 prostate
HCT-116 colon = test system: HCT-116 colon
M19-MEL melanoma = test system: M19-MEL melanoma
SF-539 CNS = test system: SF-539 CNS
MDA-MB-231 breast = test system: MDA-MB-231 breast
T-47D breast = test system: T-47D breast
LOX IMVI melanoma = test system: LOX IMVI melanoma
SN12C renal = test system: SN12C renal
XF 498 CNS = test system: XF 498 CNS
CAKI-1 renal = test system: CAKI-1 renal
M14 melanoma = test system: M14 melanoma
HOP-92 NSCLC = test system: HOP-92 NSCLC
SK-MEL-2 melanoma = test system: SK-MEL-2 melanoma
MOLT-4 leukemia = test system: MOLT-4 leukemia
HCC-2998 colon = test system: HCC-2998 colon
SF-268 CNS = test system: SF-268 CNS
TK-10 renal = test system: TK-10 renal
NCI-H460 lung = test system: NCI-H460 lung
SNB-75 CNS = test system: SNB-75 CNS
MDA-N = test system: MDA-N

Compound: O=C(O)/C(Cl)=C(/Cl)C(=O)Nc1cccc(Cl)c1
- TGI (HOP-62 NSCLC): > 76.3 µM
- TGI (786-0 renal): 31.8 µM
- TGI (KM20L2 colon): 47.3 µM
- TGI (HT29 colon): 42.3 µM
- TGI (OVCAR-8 ovarian): 38.9 µM
- TGI (SK-MEL-5 melanoma): 33.1 µM
- TGI (ACHN renal): 36.8 µM
- TGI (SF-295 CNS): > 62.2 µM
- TGI (HCT-15 colon): 34.9 µM
- TGI (RPMI-8226 leukemia): 46.2 µM
- TGI (NCI-H522 lung): 10.1 µM
- TGI (RXF-631 renal): 49.1 µM
- TGI (IGROV1 ovarian): 39 µM
- TGI (SK-MEL-28 melanoma): 32.8 µM
- TGI (A549 NSCLC): > 100 µM
- TGI (OVCAR-5 ovarian): 39.7 µM
- TGI (HS 578T breast): 71.6 µM
- TGI (SW-620 colon): 32.1 µM
- TGI (NCI-H226 lung): 67.2 µM
- TGI (CCRF-CEM leukemia): 19 µM
- TGI (MDA-MB-435): 46.5 µM
- TGI (OVCAR-3 ovarian): 31.4 µM
- TGI (A498 renal): > 100 µM
- TGI (MCF7 breast): 62.8 µM
- TGI (OVCAR-4 ovarian): 33.6 µM
- TGI (SNB-78 CNS): 61 µM
- TGI (U251 CNS): 59.9 µM
- TGI (PC-3 prostate): 38.5 µM
- TGI (EKVX NSCLC): 33.6 µM
- TGI (KM12 colon): 47.7 µM
- TGI (DMS 273 small cell lung): 18.9 µM
- TGI (UO-31 renal): 37.4 µM
- TGI (DMS 114 small cell lung): 32.2 µM
- TGI (HL-60(TB) leukemia): 22.7 µM
- TGI (LXFL 529 NSCLC): 30.3 µM
- TGI (UACC-62 melanoma): 31.7 µM
- TGI (DLD-1 colon): 34 µM
- TGI (K-562 leukemia): 40.1 µM
- TGI (SR leukemia): 26.4 µM
- TGI (RXF 393 renal): 30 µM
- TGI (BT-549 breast): 34.1 µM
- TGI (SNB-19 CNS): > 92.5 µM
- TGI (COLO 205 colon): 23.3 µM
- TGI (NCI-H23 lung): 36.4 µM
- TGI (UACC-257 melanoma): 47 µM
- TGI (MALME-3M melanoma): 31.7 µM
- TGI (HOP-18 NSCLC): 43.3 µM
- TGI (SK-OV-3 ovarian): 25.4 µM
- TGI (DU-145 prostate): > 100 µM
- TGI (HCT-116 colon): 31.8 µM
- TGI (M19-MEL melanoma): 30.4 µM
- TGI (SF-539 CNS): > 70.3 µM
- TGI (MDA-MB-231 breast): 28.1 µM
- TGI (T-47D breast): 50.8 µM
- TGI (LOX IMVI melanoma): 20.8 µM
- TGI (SN12C renal): 36.9 µM
- TGI (XF 498 CNS): 34.3 µM
- TGI (CAKI-1 renal): 16.3 µM
- TGI (M14 melanoma): 43.2 µM
- TGI (HOP-92 NSCLC): 30.8 µM
- TGI (SK-MEL-2 melanoma): 49.8 µM
- TGI (MOLT-4 leukemia): 8.45 µM
- TGI (HCC-2998 colon): 37.1 µM
- TGI (SF-268 CNS): 48.3 µM
- TGI (TK-10 renal): 33.8 µM
- TGI (NCI-H460 lung): > 100 µM
- TGI (SNB-75 CNS): 40.1 µM
- TGI (MDA-N): 37.4 µM

Compound: C/C=C/C1(NS(=O)(=O)c2ccc(C)cc2)CCC(C(C)(C)C)CC1 (configuration not stated)
- TGI (HOP-62 NSCLC): 49.7 µM
- TGI (786-0 renal): 43.8 µM
- TGI (KM20L2 colon): 38.7 µM
- TGI (HT29 colon): 37.9 µM
- TGI (OVCAR-8 ovarian): > 100 µM
- TGI (SK-MEL-5 melanoma): 31.8 µM
- TGI (ACHN renal): > 100 µM
- TGI (SF-295 CNS): 61.4 µM
- TGI (HCT-15 colon): 93.7 µM
- TGI (RPMI-8226 leukemia): 47.1 µM
- TGI (NCI-H522 lung): 26 µM
- TGI (RXF-631 renal): 71.8 µM
- TGI (IGROV1 ovarian): 77.2 µM
- TGI (A549 NSCLC): > 100 µM
- TGI (OVCAR-5 ovarian): 39.5 µM
- TGI (SW-620 colon): 67.3 µM
- TGI (NCI-H226 lung): 44.4 µM
- TGI (CCRF-CEM leukemia): 43.2 µM
- TGI (OVCAR-3 ovarian): 34.9 µM
- TGI (A498 renal): 49.3 µM
- TGI (OVCAR-4 ovarian): 48.4 µM
- TGI (SNB-78 CNS): 64.1 µM
- TGI (U251 CNS): 29.5 µM
- TGI (EKVX NSCLC): 64.5 µM
- TGI (KM12 colon): 39 µM
- TGI (DMS 273 small cell lung): 31.5 µM
- TGI (UO-31 renal): 62.3 µM
- TGI (DMS 114 small cell lung): 62.3 µM
- TGI (HL-60(TB) leukemia): 44.5 µM
- TGI (LXFL 529 NSCLC): > 100 µM
- TGI (UACC-62 melanoma): 37.4 µM
- TGI (DLD-1 colon): > 100 µM
- TGI (K-562 leukemia): 99.5 µM
- TGI (SR leukemia): 32.9 µM
- TGI (RXF 393 renal): 42.3 µM
- TGI (SNB-19 CNS): > 100 µM
- TGI (COLO 205 colon): 42.3 µM
- TGI (NCI-H23 lung): 51.7 µM
- TGI (UACC-257 melanoma): 56 µM
- TGI (MALME-3M melanoma): 49.4 µM
- TGI (HOP-18 NSCLC): > 100 µM
- TGI (SK-OV-3 ovarian): 81.5 µM
- TGI (HCT-116 colon): 36 µM
- TGI (M19-MEL melanoma): 41 µM
- TGI (SF-539 CNS): 44.1 µM
- TGI (SN12C renal): 34.7 µM
- TGI (XF 498 CNS): 39.3 µM
- TGI (CAKI-1 renal): 98.1 µM
- TGI (M14 melanoma): 35.1 µM
- TGI (HOP-92 NSCLC): 41.6 µM
- TGI (SK-MEL-2 melanoma): 34.8 µM
- TGI (MOLT-4 leukemia): 39.9 µM
- TGI (HCC-2998 colon): 36.1 µM
- TGI (SF-268 CNS): 59.5 µM
- TGI (TK-10 renal): 94.6 µM
- TGI (NCI-H460 lung): 51.5 µM
- TGI (SNB-75 CNS): > 100 µM

Compound: CCCCCCCCCCCCCC(=O)OCC1OC(OC)C(NC(=O)N(CCCl)N=O)C(O)C1O (configuration not stated)
- TGI (HOP-62 NSCLC): 75.9 µM
- TGI (786-0 renal): 17 µM
- TGI (KM20L2 colon): 52.2 µM
- TGI (HT29 colon): 50.4 µM
- TGI (OVCAR-8 ovarian): 61.1 µM
- TGI (SK-MEL-5 melanoma): 45.1 µM
- TGI (ACHN renal): 49.1 µM
- TGI (HCT-15 colon): > 100 µM
- TGI (RPMI-8226 leukemia): 42.6 µM
- TGI (RXF-631 renal): 53.9 µM
- TGI (IGROV1 ovarian): > 100 µM
- TGI (SK-MEL-28 melanoma): 59.4 µM
- TGI (A549 NSCLC): 58.2 µM
- TGI (OVCAR-5 ovarian): 91.1 µM
- TGI (SW-620 colon): 30.9 µM
- TGI (NCI-H226 lung): 75.7 µM
- TGI (CCRF-CEM leukemia): 30.2 µM
- TGI (OVCAR-3 ovarian): 53.2 µM
- TGI (A498 renal): 65.6 µM
- TGI (OVCAR-4 ovarian): 50.7 µM
- TGI (SNB-78 CNS): 90.7 µM
- TGI (U251 CNS): 52.4 µM
- TGI (KM12 colon): 64.4 µM
- TGI (DMS 273 small cell lung): 47.1 µM
- TGI (UO-31 renal): 51.7 µM
- TGI (DMS 114 small cell lung): 57.3 µM
- TGI (LXFL 529 NSCLC): 38.8 µM
- TGI (UACC-62 melanoma): 20.1 µM
- TGI (DLD-1 colon): 81.3 µM
- TGI (K-562 leukemia): 56.8 µM
- TGI (SR leukemia): 26.7 µM
- TGI (RXF 393 renal): 32.1 µM
- TGI (SNB-19 CNS): > 100 µM
- TGI (COLO 205 colon): 98.5 µM
- TGI (NCI-H23 lung): 28.6 µM
- TGI (UACC-257 melanoma): 30.2 µM
- TGI (MALME-3M melanoma): 56.8 µM
- TGI (HOP-18 NSCLC): > 100 µM
- TGI (HCT-116 colon): 38.2 µM
- TGI (SF-539 CNS): 12.9 µM
- TGI (LOX IMVI melanoma): 25.7 µM
- TGI (SN12C renal): 76.3 µM
- TGI (XF 498 CNS): 36.7 µM
- TGI (CAKI-1 renal): > 100 µM
- TGI (M14 melanoma): 39.6 µM
- TGI (SK-MEL-2 melanoma): 71.2 µM
- TGI (MOLT-4 leukemia): 29.4 µM
- TGI (HCC-2998 colon): 65.6 µM
- TGI (SF-268 CNS): 40.1 µM
- TGI (TK-10 renal): 90.7 µM
- TGI (NCI-H460 lung): 25.1 µM
- TGI (SNB-75 CNS): 73.5 µM
